Source: the NIST ThermoML archive (doi:10.1021/acs.jced.8b00771)
Numbers after ± are expanded uncertainties.

Experiment: molar heat capacity at constant pressure
Settings: 100 kPa, Extra sensitive DSC

- molar heat capacity at constant pressure (293.15 K, Crystal): 216.99 ± 12 J/K/mol
- molar heat capacity at constant pressure (303.15 K, Crystal): 221.39 ± 12 J/K/mol
- molar heat capacity at constant pressure (313.15 K, Crystal): 224.33 ± 12 J/K/mol
- molar heat capacity at constant pressure (363.15 K, Liquid): 284.44 ± 13 J/K/mol
- molar heat capacity at constant pressure (373.15 K, Liquid): 291.77 ± 13 J/K/mol
Compound: CCn1cc[n+](C)c1.[Cl-] [1-ethyl-3-methylimidazolium chloride]
